Source: US20150065499A1, “3-AMINOTHIENO[3,2-c]QUINOLINE DERIVATIVES, METHODS OF PREPARATION AND USES” (TEMPLE UNIVERSITY - OF THE COMMONWEALTH SYSTEM OF HIGHER …, priority 2012, published 2015)
Counter-ions that a name gives are not always drawn.

Experiments:
DU145 (prostate cancer) = assay: Cancer cell assay, DU145 tumor cells, viable cells after 96 hours; format: cell-based; details: Homo sapiens, DU-145, 96 hours after treatment, called IC50
Procedure: (§1) The effect of the compounds of the invention on tumor cells was determined by the assay described by Latham et al., Oncogene 12:827-837 (1996). Tumor cells K562 (chronic myelogenous leukemia; leukemia cell line +ve for Bcr-Abl) or DU145 (prostate cancer) were plated in 12-well dishes at a cell density of 2.5×10^4 cells well. The plated cells were treated 24 hours later with a compound of the invention dissolved in DMSO at multiple concentrations ranging from 0.01 μM to 100 μM. The plates were examined 96 hours later under an inverted microscope, Olympus CK-2 using a 10× objective, and compound activity was noted by physical observation. When necessary, the total number of viable cells was determined by trypsinizing the wells and counting the number of viable cells, as determined by trypan blue exclusion, using a hemacytometer.

[1] = tested on: K562 (chronic myelogenous leukemia; leukemia cell line +ve for Bcr-Abl); assay: Cancer cell assay, K562 tumor cells, viable cells after 96 hours; format: cell-based; details: 96 hours after treatment, called IC50
Procedure: as §1

| Molecule | melting point [°C] | IC50 (DU145 (prostate cancer)) [µM] | IC50 ([1]; Homo sapiens) [µM] | IC50 [1] [µM] |
| --- | --- | --- | --- | --- |
| COC(=O)c1sc2c(c[n+](C)c3cc(OC)c(OC)cc23)c1N (as salt: iodide) [Example 30, 3-amino-7,8-dimethoxy-2-(methoxycarbonyl)-5-methylthieno[3,2-c]quinolin-5-ium iodide] | 249 to 251 | – | – | – |
| COC(=O)c1sc2c(cnc3cc(OC)c(OC)cc32)c1N [Example 1, Methyl 3-amino-7,8-dimethoxythieno[3,2-c]quinolone-2-carboxylate] | 260 to 262 | 0.6 | 0.15 | – |
| CCOC(=O)c1sc2c(cnc3cc(OC)c(OC)cc32)c1N [Example 2, Ethyl 3-amino-7,8-dimethoxythieno[3,2-c]quinolone-2-carboxylate] | 215 to 218 | > 1 | 0.5 to 1 | – |
| COc1cc2ncc3c(N)c(C(=O)c4ccc(F)cc4)sc3c2cc1OC [Example 3, (3-Amino-7,8-dimethoxythieno[3,2-c]quinolin-2-yl)(4-fluorophenyl)methanone] | 286 to 288 | > 10 | > 10 | – |
| COC(=O)c1sc2c(cnc3cc(OCc4ccccc4)c(OC)cc32)c1N [Example 4, Methyl 3-amino-7-benzyloxy-8-methoxythieno[3,2-c]quinolone-2-carboxylate] | 221 to 223 | > 10 | > 10 | – |
| COc1cc2ncc3c(N)c(C(=O)C(F)(F)F)sc3c2cc1OC [Example 5, 1-(3-Amino-7,8-dimethoxythieno[3,2-c]quinolin-2-yl)-2,2,2-trifluoroethanone] | 230 to 234 | > 10 | 1 to 10 | – |
| COc1cc2ncc3c(N)c(C(C)=O)sc3c2cc1OC [Example 6, 1-(3-Amino-7,8-dimethoxythieno[3,2-c]quinolin-2-yl)ethanone] | 260 to 263 | 1 to 10 | 0.5 to 1 | – |
| COC(=O)c1sc2c(cnc3cc(OC)c(OCc4ccccc4)cc32)c1N [Example 7, Methyl 3-amino-8-benzyloxy-7-methoxythieno[3,2-c]quinoline-2-carboxylate] | 272 to 274 | > 10 | > 10 | – |
| COc1cc2ncc3c(N)c(C#N)sc3c2cc1OC [Example 8, 3-Amino-7,8-dimethoxythieno[3,2-c]quinoline-2-carbonitrile] | 314 to 316 | 10 to 25 | 1 to 10 | – |
| COC(=O)c1sc2c(cnc3cc(O)c(OC)cc32)c1N [Example 9, Methyl 3-amino-7-hydroxy-8-methoxythieno[3,2-c]quinoline-2-carboxylate] | 244 to 246 | > 10 | 1 to 10 | – |
| COC(=O)c1sc2c(cnc3cc(OC)c(O)cc32)c1N [Example 10, Methyl 3-amino-8-hydroxy-7-methoxythieno[3,2-c]quinoline-2-carboxylate] | 277 to 280 | > 100 | > 100 | – |
| COC(=O)c1sc2c(cnc3cc(OC)c(OC)cc32)c1NC(=O)C(=O)N1CCN(C)CC1 [Example 25, Methyl 7,8-dimethoxy-3-[2-(4-methylpiperazin-1-yl)-2-oxoacetamido]thieno[3,2-c]quinoline-2-carboxylate] | – | 1 to 10 | 1 to 10 | – |
| COC(=O)c1sc2c(c[n+](C)c3cc(OC)c(OC)cc23)c1N [Example 30, 3-amino-7,8-dimethoxy-2-(methoxycarbonyl)-5-methylthieno[3,2-c]quinolin-5-ium iodide] | – | > 10 | 5 to 10 | – |
| COC(=O)C[n+]1cc2c(N)c(C(=O)OC)sc2c2cc(OC)c(OC)cc21 [Example 31, 3-amino-7,8-dimethoxy-5-(2-methoxy-2-oxoethyl)-2-(methoxycarbonyl)thieno[3,2-c]quinolin-5-ium bromide] | – | > 100 | 50 to 100 | – |
| Methyl 7,8-dimethoxy-3-(2-aminobenzamido)thieno[3,2-e]quinoline-2-carboxylate [Example 21] | – | – | – | < 1 |
